This assay has as its target T1, fMet-Leu-Phe receptor (Homo sapiens, UniProt P21462).
T1 sequence (P21462 whole entry): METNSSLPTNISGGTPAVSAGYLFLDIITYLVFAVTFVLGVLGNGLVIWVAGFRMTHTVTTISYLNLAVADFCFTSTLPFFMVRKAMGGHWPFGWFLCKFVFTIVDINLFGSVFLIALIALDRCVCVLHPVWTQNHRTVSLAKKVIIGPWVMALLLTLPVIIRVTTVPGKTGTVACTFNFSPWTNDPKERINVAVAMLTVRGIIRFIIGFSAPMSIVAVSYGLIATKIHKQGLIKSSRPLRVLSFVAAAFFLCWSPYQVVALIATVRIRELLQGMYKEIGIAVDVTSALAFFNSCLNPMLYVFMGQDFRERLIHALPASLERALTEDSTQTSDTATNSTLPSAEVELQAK
The assay is described as follows: Agonist activity at human FPR1 expressed in CHO cells assessed as cAMP level incubated for 1.5 hr by HTRF assay. On the technique in general: Changes in cAMP serve as a functional read-out for many G protein-coupled receptors.

Take `CP(C)(=O)c1ccccc1-c1ccc(N2CC(CO)[C@@H](NC(=O)Nc3ccc(Cl)cc3F)C2=O)c(F)c1F` (some centres not stated) [US10676431, Example 125]: the concentration for a half-maximal effect (EC50) was above 10 µM. Turning to `O=C(Nc1ccc(Cl)cc1F)N[C@@H]1CCN(c2ccc(-c3cnn(C(F)F)c3)c(F)c2F)C1=O` [US10676431, Example 79], the 50% effective concentration (EC50) was above 10 µM.

By EC50 is commonly meant the midpoint of the concentration-response curve.

The record behind these values is BindingDB's records for PubMed 33486199 (Queen Mary University of London, 2021).
